Values of other authors as cited in patent publication US8668905B2 (priority 2005, dated 2014).

Tested on: drug-resistant SCLC

In the case of CC(=O)O[C@H]1C(=O)[C@@]2(C)[C@H]([C@H](OC(=O)c3ccccc3)[C@]3(O)C[C@H](OC(=O)[C@H](O)[C@@H](NC(=O)c4ccccc4)c4ccccc4)C(C)=C1C3(C)C)[C@]1(OC(C)=O)CO[C@@H]1C[C@@H]2O [Taxol, Paclitaxel], the life-threatening toxicity ((Smit, 1998)) is listed as 20 % of patients and the median survival (drug-resistant SCLC patients (Smit, 1998)) is listed as 100 days.
